In patent US12616806B2, “Nasal administration” (OptiNose Inc., priority 2013, dated 2026):

Assays:
[1] = test system: chronic rhinosinusitis (CRS) with nasal polyps; experiment: Example #12: placebo controlled study in chronic rhinosinusitis with nasal polyps; format: in vivo, human; conditions: after 12 weeks
[2] = test system: episodic migraine; conditions: continuous carbon dioxide infusion; cited from earlier work
[3] = cited from earlier work

Row | Structure (SMILES) | change in summed polyp score [1] | two-hour pain free response [2] [%] | dips in mucosal pH ([3]; 5 L/min carbon dioxide in concentrations of 15% and 45%) | decrease of extracellular nasal mucosal pH ([3]; 5 L/min, 3 s duration, 20% carbon dioxide, basal ~7.4)
1 | C[C@@H]1C[C@H]2[C@@H]3C[C@H](F)C4=CC(=O)C=C[C@]4(C)[C@@]3(F)[C@@H](O)C[C@]2(C)[C@@]1(O)C(=O)SCF [fluticasone] | −0.98 |  |  | 
2 | O=C=O [carbon dioxide] |  | 25.0 | 0.1-0.2 pH units | 0.05-0.1 pH units
